Assay results: ChEMBL document CHEMBL1201862, “PubChem BioAssay data set” (2004)
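Step 1: Grow cells in 96-well plates. Step 2: Expose to compound for 48 hours at 5 concentrations. Step 3: Interpolate endpoints linearly; if unreached, use highest concentration. At the GI50, growth is halved.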 Calls of active or inactive are those of the source. Cut-off read from the data, not from the text of the source: active = GI50 up to about 1.1 µM and inactive = higher.

Legend:
Assay in all cases: inhibition of tumour cell growth, NCI panel, 48 h
[1] = test system: BT-549
[2] = test system: NCI-H460
[3] = test system: UACC-62
[4] = test system: SK-MEL-5
[5] = test system: CAKI-1
[6] = test system: KM12
[7] = test system: ACHN
[8] = test system: K562
[9] = test system: HCT-15
[10] = test system: HCT-116
[11] = test system: HCC 2998
[12] = test system: SN12C
[13] = test system: TK-10
[14] = test system: NCI/ADR-RES
[15] = test system: SW-620
[16] = test system: MDA-MB-231
[17] = test system: RXF 393
[18] = test system: Hs-578T
[19] = test system: OVCAR-3
[20] = test system: MOLT-4

SMILES | GI50 [1] | GI50 [2] | GI50 [3] | GI50 [4] | GI50 [5] | GI50 [6] | GI50 [7] | GI50 [8] | GI50 [9] [µM] | GI50 [10] | GI50 [11] | GI50 [12] | GI50 [13] | GI50 [14] | GI50 [15] | GI50 [16] | GI50 [17] | GI50 [18] | GI50 [19] | GI50 [20]
O=C1c2cc(Br)ccc2-c2ccc3c4ccc5c6c(ccc(c7ccc1c2c73)c64)C(=O)c1cc(Br)ccc1-5 | > 100 µM (inactive) | > 100 µM (inactive) | > 100 µM (inactive) | > 100 µM (inactive) | > 100 µM (inactive) | > 100 µM (inactive) | > 100 µM (inactive) | > 100 µM (inactive) | > 100 | > 100 µM (inactive) | > 100 µM (inactive) | > 100 µM (inactive) | > 100 µM (inactive) | > 100 µM (inactive) | > 100 µM (inactive) | > 100 µM (inactive) | > 100 µM (inactive) | > 100 µM (inactive) | > 100 µM (inactive) | –
Cn1c(=O)c2c(nc3sc4ncccc4c(=O)n32)n(C)c1=O | > 100 µM (inactive) | > 100 µM (inactive) | > 100 µM (inactive) | > 100 µM (inactive) | > 100 µM (inactive) | > 100 µM (inactive) | > 100 µM (inactive) | – | > 100 | > 100 µM (inactive) | > 100 µM (inactive) | > 100 µM (inactive) | > 100 µM (inactive) | > 100 µM (inactive) | > 100 µM (inactive) | > 100 µM (inactive) | > 100 µM (inactive) | > 100 µM (inactive) | > 100 µM (inactive) | > 100 µM (inactive)
COc1ccccc1/C=N/Nc1nnc2c3ccccc3c3ncccc3c2n1 | 41.7 µM (inactive) | 45.1 µM (inactive) | 48.8 µM (inactive) | 89.5 µM (inactive) | > 100 µM (inactive) | > 100 µM (inactive) | 57 µM (inactive) | 70.8 µM (inactive) | > 100 | 72.4 µM (inactive) | 71.9 µM (inactive) | 87.5 µM (inactive) | 28.6 µM (inactive) | 38.1 µM (inactive) | > 100 µM (inactive) | 26.2 µM (inactive) | 18.1 µM (inactive) | 21 µM (inactive) | 47.2 µM (inactive) | 60.3 µM (inactive)
COc1cc(C2SCC(=O)N2c2ccc(Cl)cc2)cc(OC)c1OC (stereo not drawn) | 20.2 µM (inactive) | 3.7 µM (inactive) | < 0.0205 µM (active) | 1.26 µM (inactive) | 10.4 µM (inactive) | 3.38 µM (inactive) | – | 0.11 µM (active) | 13.9 | 8.11 µM (inactive) | > 30.2 µM (inactive) | > 39.5 µM (inactive) | > 100 µM (inactive) | 20.4 µM (inactive) | 19 µM (inactive) | > 100 µM (inactive) | 19.1 µM (inactive) | > 100 µM (inactive) | 22.2 µM (inactive) | 1.69 µM (inactive)
COC(=O)C12CCC(C(=O)OC)(Cc3c(c4ccccc4n3S(=O)(=O)c3ccccc3)C1)C2=O (stereo not drawn) | > 100 µM (inactive) | > 67 µM (inactive) | > 40.5 µM (inactive) | 9.29 µM (inactive) | > 62.4 µM (inactive) | > 100 µM (inactive) | > 64.1 µM (inactive) | 62.1 µM (inactive) | > 100 | – | > 76.9 µM (inactive) | > 100 µM (inactive) | > 56.2 µM (inactive) | 16.7 µM (inactive) | > 100 µM (inactive) | > 100 µM (inactive) | 1.61 µM (inactive) | > 46.6 µM (inactive) | > 61.8 µM (inactive) | –
CC1(C)[C@H]2Cc3cc(-c4cc5c(cn4)[C@@H]4C[C@H]([C@@H]5[C@@H]5c6cc(-c7cc8c(cn7)[C@@H]7C[C@H](C8)C7(C)C)ncc6[C@@H]6C[C@H]5C6(C)C)C4(C)C)ncc3[C@@H]1C2 | > 100 µM (inactive) | > 100 µM (inactive) | > 100 µM (inactive) | > 100 µM (inactive) | > 100 µM (inactive) | > 100 µM (inactive) | > 100 µM (inactive) | > 100 µM (inactive) | > 100 | > 100 µM (inactive) | 76.7 µM (inactive) | > 100 µM (inactive) | – | > 100 µM (inactive) | > 100 µM (inactive) | > 100 µM (inactive) | > 100 µM (inactive) | > 100 µM (inactive) | > 100 µM (inactive) | > 100 µM (inactive)
O=[N+]([O-])/C(C(Cl)=C(Cl)Cl)=C(\Nc1cccc2ccccc12)n1nnc2ccccc21 | 21.7 µM (inactive) | 63.4 µM (inactive) | 40.9 µM (inactive) | – | > 100 µM (inactive) | 30.7 µM (inactive) | > 100 µM (inactive) | – | 58.2 | 34.1 µM (inactive) | > 100 µM (inactive) | > 100 µM (inactive) | – | 78.3 µM (inactive) | 58.5 µM (inactive) | 47.1 µM (inactive) | 19.1 µM (inactive) | 9.31 µM (inactive) | 46.8 µM (inactive) | –
CC(C)[Si]1(C(C)C)OCC2OC(n3ccc(=O)[nH]c3=O)C([Se]c3ccccc3)C2O[Si](C(C)C)(C(C)C)O1 (stereo not drawn) | 11.6 µM (inactive) | 1.87 µM (inactive) | 4.71 µM (inactive) | 3.01 µM (inactive) | 11.5 µM (inactive) | 2.16 µM (inactive) | 2.61 µM (inactive) | – | 4.39 | 2.62 µM (inactive) | 1.58 µM (inactive) | 2.29 µM (inactive) | 7.46 µM (inactive) | 11.2 µM (inactive) | 2.32 µM (inactive) | 2.83 µM (inactive) | 4.55 µM (inactive) | 0.762 µM (active) | 4.52 µM (inactive) | 7.38 µM (inactive)
CCOC(=O)CCC(NC(=O)c1ccc(Nc2nc3ccccc3n3cccc23)cc1)C(=O)OCC (stereo not drawn) | 23.3 µM (inactive) | 28.7 µM (inactive) | 23.1 µM (inactive) | 31 µM (inactive) | 33.6 µM (inactive) | 31.1 µM (inactive) | 20.6 µM (inactive) | 38.5 µM (inactive) | 29.7 | 31.2 µM (inactive) | 29.8 µM (inactive) | – | 22.5 µM (inactive) | 19.5 µM (inactive) | 81.7 µM (inactive) | 21.5 µM (inactive) | 12.2 µM (inactive) | 35.6 µM (inactive) | 18.2 µM (inactive) | 18.3 µM (inactive)
CS(=O)(=O)Nc1ccc2c(c1)oc(=O)c1ccccc12 | > 100 µM (inactive) | > 100 µM (inactive) | 65 µM (inactive) | > 100 µM (inactive) | > 100 µM (inactive) | > 100 µM (inactive) | > 100 µM (inactive) | > 100 µM (inactive) | > 100 | > 100 µM (inactive) | > 100 µM (inactive) | > 100 µM (inactive) | – | > 100 µM (inactive) | > 100 µM (inactive) | > 100 µM (inactive) | > 100 µM (inactive) | > 100 µM (inactive) | > 100 µM (inactive) | > 100 µM (inactive)
O=c1[nH]nc(Cc2ccccc2)n1/N=C/c1ccncc1 | 68.9 µM (inactive) | > 100 µM (inactive) | – | 64.4 µM (inactive) | 42.2 µM (inactive) | > 100 µM (inactive) | > 100 µM (inactive) | > 100 µM (inactive) | > 100 | > 100 µM (inactive) | > 100 µM (inactive) | > 100 µM (inactive) | > 100 µM (inactive) | > 100 µM (inactive) | > 100 µM (inactive) | > 100 µM (inactive) | > 100 µM (inactive) | 82.2 µM (inactive) | > 100 µM (inactive) | > 100 µM (inactive)
CC[C@@]1(C[C@H]2C[C@@]3(C(=O)OC)c4[nH]c5ccccc5c4CCN3C2=O)COC2(CCCCC2)O1 | 47.9 µM (inactive) | 24.3 µM (inactive) | 23.5 µM (inactive) | 13.5 µM (inactive) | 36.2 µM (inactive) | 19.9 µM (inactive) | 30.9 µM (inactive) | 23.6 µM (inactive) | 33.3 | 30 µM (inactive) | 21.2 µM (inactive) | 45.7 µM (inactive) | 32.8 µM (inactive) | 31.8 µM (inactive) | – | > 100 µM (inactive) | 19.5 µM (inactive) | 18.9 µM (inactive) | 51.2 µM (inactive) | 16.6 µM (inactive)
Cc1nc2ccc(/N=N/N(C)C)cc2[nH]1 | 86.5 µM (inactive) | > 100 µM (inactive) | > 100 µM (inactive) | > 100 µM (inactive) | > 100 µM (inactive) | > 100 µM (inactive) | > 100 µM (inactive) | – | > 100 | > 100 µM (inactive) | > 100 µM (inactive) | > 100 µM (inactive) | > 100 µM (inactive) | > 100 µM (inactive) | > 100 µM (inactive) | > 100 µM (inactive) | > 100 µM (inactive) | > 100 µM (inactive) | > 100 µM (inactive) | > 100 µM (inactive)
Cc1[nH]c2ncn(/N=C/c3ccccc3)c(=N)c2c1Cc1ccccc1 | > 100 µM (inactive) | > 100 µM (inactive) | 58.9 µM (inactive) | – | > 100 µM (inactive) | 75.7 µM (inactive) | > 100 µM (inactive) | > 100 µM (inactive) | > 100 | 87.3 µM (inactive) | 83.9 µM (inactive) | > 100 µM (inactive) | > 100 µM (inactive) | > 100 µM (inactive) | > 100 µM (inactive) | 58.1 µM (inactive) | > 100 µM (inactive) | > 100 µM (inactive) | > 100 µM (inactive) | 53 µM (inactive)
